Molecules are shown by their SMILES. Some results are limits rather than exact numbers.

In general, IC50 refers to the concentration that gives 50% inhibition.

For this test, the target named is T1, recombinant human KLK5 (Homo sapiens, UniProt Q9Y337).
T1 construct: purchased Novoprotein or R&D Systems C415 or 1108-SE
T1 sequence (Q9Y337 23-293): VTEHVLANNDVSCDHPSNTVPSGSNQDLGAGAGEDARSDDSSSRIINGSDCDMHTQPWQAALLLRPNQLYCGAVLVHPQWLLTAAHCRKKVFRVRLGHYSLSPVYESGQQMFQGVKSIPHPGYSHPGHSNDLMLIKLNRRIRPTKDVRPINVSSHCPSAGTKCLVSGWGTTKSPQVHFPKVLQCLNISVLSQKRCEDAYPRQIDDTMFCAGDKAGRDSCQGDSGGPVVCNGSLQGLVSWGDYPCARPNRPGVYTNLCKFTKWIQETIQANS
In words: Kallikrein (KLK) 5 enzymatic assay (Boc-VPR-AMC fluorogenic substrate). The class given is biochemical. The settings on record: recombinant human KLK5 0.1 μg/well, Boc-VPR-AMC 100 μM, pH 7.5, room temperature, 1% DMSO; tested a minimum of three times. A digest of the protocol:
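Fluorogenic rate assay at pH 7.5 (0.1 M NaH2PO4, 1% DMSO, room temperature), run at least three times per compound. Compound was premixed with 0.1 μg/well recombinant human KLK5 before adding 100 μM Boc-VPR-AMC; AMC release was read at ex 380/em 460 nm, and IC50 derived from inhibition of rate vs DMSO control.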

For the compound `Nc1nccc2ccc(-c3ccc4c(c3)C(Oc3ccccc3CC(=O)O)c3ccccc3-4)cc12` (stereo not drawn) [Compound 209e, 2-(2-((2-(1-aminoisoquinolin-7-yl)-9H-fluoren-9-yl)oxy)phenyl)acetic acid], the IC50 is under 1000 nM. The value for `Nc1nccc2c(-c3ccc4c(c3)C(Oc3ccccc3CC(=O)O)c3ccccc3-4)cccc12` (stereo not drawn) [Compound 210b, 2-(2-((2-(1-aminoisoquinolin-5-yl)-9H-fluoren-9-yl)oxy)phenyl)acetic acid] was under 1000 nM; that for `COc1ccc(-c2ccc3c(c2)c(COc2ccccc2CC(=O)O)nn3C(C)C)cc1C(=N)N` [Compound 211e, 2-(2-((5-(3-carbamimidoyl-4-methoxyphenyl)-1-isopropyl-1H-indazol-3-yl)methoxy)phenyl)acetic acid] was 1000 to 10000 nM; that for `CC(C)n1nc(COc2ccccc2CC(=O)O)c2cc(-c3cccc4c3OCC4N)ccc21` (stereo not drawn) [Compound 212c, 2-(2-((5-(3-amino-2,3-dihydrobenzofuran-7-yl)-1-isopropyl-1H-indazol-3-yl)methoxy)phenyl)acetic acid] was 1000 to 10000 nM. The value for `CC(C)n1nc(COc2ccccc2CC(=O)O)c2cc(-c3cccc4c3OCCC4N)ccc21` (stereo not drawn) [Compound 213c, 2-(2-((5-(4-aminochroman-8-yl)-1-isopropyl-1H-indazol-3-yl)methoxy)phenyl)acetic acid] was over 10000 nM.

Turning to `CC(C)n1nc(COc2ccccc2CC(=O)O)c2cc(-c3ccc4c(c3)C(N)CCO4)ccc21` (stereo not drawn) [Compound 214c, 2-(2-((5-(4-aminochroman-6-yl)-1-isopropyl-1H-indazol-3-yl)methoxy)phenyl)acetic acid], the IC50 is over 10000 nM. The value for `Nc1nccc2ccc(-c3ccc4c(c3)[C@H](Oc3ccccc3CC(=O)O)CC4)cc12` [Compound 215d, (R)-2-(2-((6-(1-aminoisoquinolin-7-yl)-2,3-dihydro-1H-inden-1-yl)oxy)phenyl)acetic acid] was under 1000 nM; that for `Nc1nccc2c(-c3ccc4c(c3)[C@H](Oc3ccccc3CC(=O)O)CC4)cccc12` [Compound 216b, (R)-2-(2-((6-(1-aminoisoquinolin-5-yl)-2,3-dihydro-1H-inden-1-yl)oxy)phenyl)acetic acid] was under 1000 nM; that for `Cn1c(=O)n(Cc2ccccc2CC(=O)O)c2cc(-c3ccc4ccnc(N)c4c3)ccc21` [Compound 217e, 2-(2-((6-(1-aminoisoquinolin-7-yl)-3-methyl-2-oxo-2,3-dihydro-1H-benzo[d]imidazol-1-yl)methyl)phenyl)acetic acid] was over 10000 nM. On to `Cn1c(=O)n(Cc2ccccc2CC(=O)O)c2cc(-c3cccc4c(N)nccc34)ccc21` [Compound 218b, 2-(2-((6-(1-aminoisoquinolin-5-yl)-3-methyl-2-oxo-2,3-dihydro-1H-benzo[d]imidazol-1-yl)methyl)phenyl)acetic acid], for which the concentration for half-maximal inhibition (IC50) lay within 1000 to 10000 nM. As for `Cn1c(=O)n(Cc2ccccc2CC(=O)O)c2cc(-c3cccc(C(=N)N)c3)ccc21` [Compound 219c, 2-(2-((6-(3-carbamimidoylphenyl)-3-methyl-2-oxo-2,3-dihydro-1H-benzo[d]imidazol-1-yl)methyl)phenyl)acetic acid], the IC50 fell in the range of 1000 to 10000 nM. As for `Cn1c(=O)n(Cc2ccccc2CC(=O)O)c2cc(-c3cccc(C(N)=O)c3)ccc21` [Compound 219d, 2-(2-((6-(3-carbamoylphenyl)-3-methyl-2-oxo-2,3-dihydro-1H-benzo[d]imidazol-1-yl)methyl)phenyl)acetic acid], the 50% inhibitory concentration (IC50) was 1000 to 10000 nM. The value for `Cc1cc2c(-c3ccc4c(c3)c(COc3ccccc3CC(=O)O)nn4C(C)C)cccc2c(N)n1` [Compound 220d, 2-(2-((5-(1-amino-3-methylisoquinolin-5-yl)-1-isopropyl-1H-indazol-3-yl)methoxy)phenyl)acetic acid] was 1000 to 10000 nM. For `Nc1nccc2ccc(-c3ccc4c(c3)[C@@H](Oc3ccccc3CC(=O)O)CC4)cc12` [Compound 221d, (S)-2-(2-((6-(1-aminoisoquinolin-7-yl)-2,3-dihydro-1H-inden-1-yl)oxy)phenyl)acetic acid], the concentration for half-maximal inhibition (IC50) fell in the range of 1000 to 10000 nM. The value for `Nc1nccc2c(-c3ccc4c(c3)[C@@H](Oc3ccccc3CC(=O)O)CC4)cccc12` [Compound 222b, (S)-2-(2-((6-(1-aminoisoquinolin-5-yl)-2,3-dihydro-1H-inden-1-yl)oxy)phenyl)acetic acid] was 1000 to 10000 nM; that for `Nc1nccc2c(-c3ccc4c(c3)c(COc3ccccc3CC(=O)O)nn4C3CCCC3)cccc12` [Compound 223b, 2-(2-((5-(1-aminoisoquinolin-5-yl)-1-cyclopentyl-1H-indazol-3-yl)methoxy)phenyl)acetic acid] was under 1000 nM; that for `N=C(N)c1cccc(-c2ccc3c(c2)c(COc2ccccc2CC(=O)O)nn3C2CCCC2)c1` [Compound 224b, 2-(2-((5-(3-carbamimidoylphenyl)-1-cyclopentyl-1H-indazol-3-yl)methoxy)phenyl)acetic acid] was under 1000 nM.

Regarding `Nc1nccc2c(-c3ccc4c(c3)c(COc3ccccc3CC(=O)O)nn4C3CCCCC3)cccc12` [Compound 225b, 2-(2-((5-(1-aminoisoquinolin-5-yl)-1-cyclohexyl-1H-indazol-3-yl)methoxy)phenyl)acetic acid], the concentration for half-maximal inhibition (IC50) was under 1000 nM. In the case of `N=C(N)c1cccc(-c2ccc3c(c2)c(COc2ccccc2CC(=O)O)nn3C2CCCCC2)c1` [Compound 226b, 2-(2-((5-(3-carbamimidoylphenyl)-1-cyclohexyl-1H-indazol-3-yl)methoxy)phenyl)acetic acid], the IC50 was under 1000 nM.

For the compound `N=C(N)c1cccc(-c2cc(OCc3ccccn3)c3occ(COc4ccccc4CC(=O)O)c3c2)c1` [Compound 227i, 2-(2-((5-(3-carbamimidoylphenyl)-7-(pyridin-2-ylmethoxy)benzofuran-3-yl)methoxy)phenyl)acetic acid], the IC50 is under 1000 nM. The value for `N=C(N)c1cccc(-c2cc(OCc3nccs3)c3occ(COc4ccccc4CC(=O)O)c3c2)c1` [Compound 228f, 2-(2-((5-(3-carbamimidoylphenyl)-7-(thiazol-2-ylmethoxy)benzofuran-3-yl)methoxy)phenyl)acetic acid] was under 1000 nM; that for `COc1cc(-c2ccc3ccnc(N)c3c2)cc2c(COc3ccccc3CC(=O)O)coc12` [Compound 229f, 2-(2-((5-(1-aminoisoquinolin-7-yl)-7-methoxybenzofuran-3-yl)methoxy)phenyl)acetic acid] was 1000 to 10000 nM. For the compound `COc1cc(-c2ccc3ccnc(N)c3c2)cc2c(COc3cc(C)ccc3CC(=O)O)coc12` [Compound 230d, 2-(2-((5-(1-aminoisoquinolin-7-yl)-7-methoxybenzofuran-3-yl)methoxy)-4-methylphenyl)acetic acid], the IC50 was in the range of 1000 to 10000 nM. Turning to `Nc1nccc2ccc(-c3cc4c(COc5ccccc5CC(=O)O)cccc4o3)cc12` [Compound 231f, 2-(2-((2-(1-aminoisoquinolin-7-yl)benzofuran-4-yl)methoxy)phenyl)acetic acid], the 50% inhibitory concentration (IC50) fell in the range of 1000 to 10000 nM.

Turning to `Nc1nccc2c(-c3cc4c(COc5ccccc5CC(=O)O)cccc4o3)cccc12` [Compound 232b, 2-(2-((2-(1-aminoisoquinolin-5-yl)benzofuran-4-yl)methoxy)phenyl)acetic acid], the IC50 was over 10000 nM. The value for `Cc1cc(-c2ccc3ccnc(N)c3c2)cc2c(COc3ccccc3CC(=O)O)coc12` [Compound 233f, 2-(2-((5-(1-aminoisoquinolin-7-yl)-7-methylbenzofuran-3-yl)methoxy)phenyl)acetic acid] was 1000 to 10000 nM. With `COc1ccc(CC(=O)O)c(OCc2coc3c(OC)cc(-c4ccc5ccnc(N)c5c4)cc23)c1` [Compound 234c, 2-(2-((5-(1-aminoisoquinolin-7-yl)-7-methoxybenzofuran-3-yl)methoxy)-4-methoxyphenyl)acetic acid], the half-maximal inhibitory concentration (IC50) was over 10000 nM. For the compound `COc1cc(-c2cccc3c(N)nccc23)cc2c(COc3ccccc3CC(=O)O)coc12` [Compound 235b, 2-(2-((5-(1-aminoisoquinolin-5-yl)-7-methoxybenzofuran-3-yl)methoxy)phenyl)acetic acid], the half-maximal inhibitory concentration (IC50) fell in the range of 1000 to 10000 nM. The value for `COc1cc(-c2cccc(C(=N)N)c2)cc2c(COc3ccccc3CC(=O)O)coc12` [Compound 236b, 2-(2-((5-(3-carbamimidoylphenyl)-7-methoxybenzofuran-3-yl)methoxy)phenyl)acetic acid] was under 1000 nM; that for `COc1cc(-c2ccc3ccnc(N)c3c2)cc2c(COc3c(C)cccc3CC(=O)O)coc12` [Compound 237c, 2-(2-((5-(1-aminoisoquinolin-7-yl)-7-methoxybenzofuran-3-yl)methoxy)-3-methylphenyl)acetic acid] was over 10000 nM; that for `COc1c(C(=N)N)cccc1-c1ccc2c(c1)c(COc1ccccc1CC(=O)O)nn2C1CCC1` [Compound 238d, 2-(2-((5-(3-carbamimidoyl-2-methoxyphenyl)-1-cyclobutyl-1H-indazol-3-yl)methoxy)phenyl)acetic acid] was under 1000 nM. As to `Cc1cccc(OCc2nn(C3CCCC3)c3ccc(-c4cccc5c(N)nccc45)cc23)c1CC(=O)O` [Compound 239f, 2-(2-((5-(1-aminoisoquinolin-5-yl)-1-cyclopentyl-1H-indazol-3-yl)methoxy)-6-methylphenyl)acetic acid], the IC50 was under 1000 nM.

For the compound `Cc1cccc(OCc2nn(C3CCCC3)c3ccc(-c4ccc5ccnc(N)c5c4)cc23)c1CC(=O)O` [Compound 240b, 2-(2-((5-(1-aminoisoquinolin-7-yl)-1-cyclopentyl-1H-indazol-3-yl)methoxy)-6-methylphenyl)acetic acid], the half-inhibitory concentration (IC50) was under 1000 nM.

Values taken from patent US20240239752A1, “BICYCLIC HETEROAROMATIC INHIBITORS OF KLK5” (BioCryst Pharmaceuticals, Inc., priority 2021, published 2024).
